{"source": "paper PMC9075979", "about": "(Molecular Therapy, 2022)", "target": "Omicron variant RBD or S1 domains-hACE2 binding (Homo sapiens, UniProt Q9BYF1)", "sequence (Q9BYF1 18-740, stated change not applied)": "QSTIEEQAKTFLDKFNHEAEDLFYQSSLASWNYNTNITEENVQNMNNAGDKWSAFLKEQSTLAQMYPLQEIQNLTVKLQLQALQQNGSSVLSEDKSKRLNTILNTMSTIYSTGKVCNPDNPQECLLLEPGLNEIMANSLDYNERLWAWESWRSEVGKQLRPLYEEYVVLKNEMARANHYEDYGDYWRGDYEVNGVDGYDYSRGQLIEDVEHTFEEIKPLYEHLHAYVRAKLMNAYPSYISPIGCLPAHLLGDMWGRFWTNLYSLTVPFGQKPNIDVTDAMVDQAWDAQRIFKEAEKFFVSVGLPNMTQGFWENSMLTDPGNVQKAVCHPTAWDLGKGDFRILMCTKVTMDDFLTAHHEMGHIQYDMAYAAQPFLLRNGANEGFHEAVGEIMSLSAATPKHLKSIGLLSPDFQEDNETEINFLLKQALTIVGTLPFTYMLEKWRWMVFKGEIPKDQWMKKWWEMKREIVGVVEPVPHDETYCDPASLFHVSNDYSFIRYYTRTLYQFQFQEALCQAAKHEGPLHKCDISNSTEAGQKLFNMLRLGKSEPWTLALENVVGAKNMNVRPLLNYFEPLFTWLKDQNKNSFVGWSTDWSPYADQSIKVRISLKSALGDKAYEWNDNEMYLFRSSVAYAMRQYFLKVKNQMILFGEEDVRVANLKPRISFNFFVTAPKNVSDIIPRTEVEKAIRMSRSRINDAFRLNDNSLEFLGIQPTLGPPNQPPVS"}
{"smiles": "c1ccc(-c2ccc(C(c3ccccc3)n3ccnc3)cc2)cc1", "note": "(stereo not shown) [bifonazole]", "values": [{"measurement": "binding of Omicron variant RBD or S1 bioreporters to hACE2", "value": "significantly reduced binding"}]}
